Results from patent US9233977B2, “Leucine-rich repeat kinase enzyme activity” (Merck Sharp & Dohme Corp., priority 2010, dated 2016).

Each compound was assayed against T1, LRRK2 G2019S mutant kinase (Homo sapiens, UniProt Q5S007, G2019S) (assay: LRRK2 G2019S LanthaScreen TR-FRET kinase assay). Details: LRRK2 G2019S GST-tagged protein, 75 nM Fluorescein-ERM (LRRKtide), 100 μM ATP, 1 hour at room temperature; read-out: IC50 (potency).
T1 construct: GST; purchased Invitrogen PV4882
Assay type: biochemical
Experimental: The final solvent concentration in the assay was 1% DMSO. […] Generation of raw data and workup of data to derive the IC50 (potency) and maximal inhibition at concentrations tested were performed using Merck's Assay Data Analyzer (ADA) software.
The IC50 (potency) was evaluated for the example compounds presented above.

T1 sequence (Q5S007 whole entry G2019S): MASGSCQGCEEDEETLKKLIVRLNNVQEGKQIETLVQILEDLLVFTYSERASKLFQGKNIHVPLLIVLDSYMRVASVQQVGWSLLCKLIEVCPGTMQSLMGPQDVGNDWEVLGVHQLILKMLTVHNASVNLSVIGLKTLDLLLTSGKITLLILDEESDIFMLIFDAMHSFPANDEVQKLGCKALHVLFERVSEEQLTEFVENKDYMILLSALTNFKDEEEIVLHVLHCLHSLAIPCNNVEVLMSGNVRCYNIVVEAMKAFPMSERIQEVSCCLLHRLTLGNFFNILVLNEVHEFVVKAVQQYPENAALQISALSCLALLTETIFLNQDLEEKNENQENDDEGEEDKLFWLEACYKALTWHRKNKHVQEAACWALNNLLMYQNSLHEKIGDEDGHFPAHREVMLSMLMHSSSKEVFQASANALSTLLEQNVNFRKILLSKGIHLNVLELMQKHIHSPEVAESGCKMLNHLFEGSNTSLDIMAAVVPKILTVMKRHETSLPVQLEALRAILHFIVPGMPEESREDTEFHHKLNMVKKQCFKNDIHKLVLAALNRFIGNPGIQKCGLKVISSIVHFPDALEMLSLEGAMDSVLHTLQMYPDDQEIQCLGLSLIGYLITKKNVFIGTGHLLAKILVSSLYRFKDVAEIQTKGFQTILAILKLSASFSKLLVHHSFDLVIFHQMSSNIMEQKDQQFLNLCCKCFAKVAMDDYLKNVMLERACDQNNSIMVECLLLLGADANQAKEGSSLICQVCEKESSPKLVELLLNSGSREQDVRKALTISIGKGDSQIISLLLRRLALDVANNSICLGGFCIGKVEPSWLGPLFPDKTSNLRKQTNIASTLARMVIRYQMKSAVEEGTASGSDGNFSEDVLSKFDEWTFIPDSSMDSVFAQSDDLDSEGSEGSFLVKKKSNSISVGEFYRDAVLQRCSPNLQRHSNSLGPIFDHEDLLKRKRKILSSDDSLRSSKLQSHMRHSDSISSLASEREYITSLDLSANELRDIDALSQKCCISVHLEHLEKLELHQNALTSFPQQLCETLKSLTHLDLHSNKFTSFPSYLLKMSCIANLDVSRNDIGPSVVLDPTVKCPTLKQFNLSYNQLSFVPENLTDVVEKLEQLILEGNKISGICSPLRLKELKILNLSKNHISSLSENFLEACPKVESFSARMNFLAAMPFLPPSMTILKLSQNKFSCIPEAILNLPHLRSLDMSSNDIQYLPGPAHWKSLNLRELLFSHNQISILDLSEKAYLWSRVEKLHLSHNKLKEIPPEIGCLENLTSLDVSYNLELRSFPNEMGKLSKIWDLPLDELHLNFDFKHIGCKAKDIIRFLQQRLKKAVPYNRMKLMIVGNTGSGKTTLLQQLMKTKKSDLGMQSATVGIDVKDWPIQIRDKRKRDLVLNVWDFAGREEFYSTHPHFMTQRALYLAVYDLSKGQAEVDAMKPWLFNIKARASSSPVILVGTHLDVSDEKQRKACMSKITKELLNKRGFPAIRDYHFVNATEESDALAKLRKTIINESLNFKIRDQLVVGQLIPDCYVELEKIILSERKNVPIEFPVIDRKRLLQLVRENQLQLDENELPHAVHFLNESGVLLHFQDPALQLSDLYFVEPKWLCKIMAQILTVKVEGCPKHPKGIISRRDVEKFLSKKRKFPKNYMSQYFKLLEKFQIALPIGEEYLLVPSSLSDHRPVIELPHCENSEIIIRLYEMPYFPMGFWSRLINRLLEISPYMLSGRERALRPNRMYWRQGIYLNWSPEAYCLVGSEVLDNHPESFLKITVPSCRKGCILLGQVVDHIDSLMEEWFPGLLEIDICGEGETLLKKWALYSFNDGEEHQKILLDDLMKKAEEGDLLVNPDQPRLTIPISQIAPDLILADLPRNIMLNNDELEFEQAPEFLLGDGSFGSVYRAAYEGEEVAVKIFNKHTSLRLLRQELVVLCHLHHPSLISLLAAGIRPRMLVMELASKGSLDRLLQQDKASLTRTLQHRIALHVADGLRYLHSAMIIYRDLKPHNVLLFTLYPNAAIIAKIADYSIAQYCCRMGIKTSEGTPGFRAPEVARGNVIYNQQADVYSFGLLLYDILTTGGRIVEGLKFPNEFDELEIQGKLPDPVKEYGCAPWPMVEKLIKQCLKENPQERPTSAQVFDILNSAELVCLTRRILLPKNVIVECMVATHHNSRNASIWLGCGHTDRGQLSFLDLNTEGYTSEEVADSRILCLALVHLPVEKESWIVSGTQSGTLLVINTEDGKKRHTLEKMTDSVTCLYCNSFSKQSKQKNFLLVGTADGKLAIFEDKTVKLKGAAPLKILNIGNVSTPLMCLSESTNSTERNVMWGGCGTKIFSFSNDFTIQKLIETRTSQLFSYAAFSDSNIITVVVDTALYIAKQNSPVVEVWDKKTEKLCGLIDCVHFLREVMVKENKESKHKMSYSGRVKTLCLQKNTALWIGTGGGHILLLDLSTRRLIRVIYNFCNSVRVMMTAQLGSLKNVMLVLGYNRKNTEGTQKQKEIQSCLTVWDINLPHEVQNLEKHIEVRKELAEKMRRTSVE

SMILES | IC50 [nM]
CCC(C)CSc1sc(-c2cc[nH]n2)c2c1C(=O)N[C@@H](C)C2 (some centres unmarked) [Example 48] | 55
CCCSc1sc(-c2cc[nH]n2)c2c1C(=O)NCC2C (stereo in doubt) [Example 28, (7S)-7-methyl-3-(propylsulfanyl)-1-(1H-pyrazol-3-yl)-6,7-dihydrothieno[3,4-c]pyridin-4(5)-one] | 42
CSc1sc(-c2cc[nH]n2)c2c1C(=O)NC(C(F)(F)F)C2 (centres unmarked) [Example 9, 6-trifiuoromethyl-3-(methylsulfanyl)-1-(1H-pyrazol-3-yl)-6,7-dihydrothieno[3,4-c]pyridin-4(5)-one] | 190
CSc1sc(-c2cc[nH]n2)c2c1C(=O)N[C@H](c1cccnc1)C2 [Example 19, (6S)-3-(methylsulfanyl)-6-(3-pyridyl)-1-(1H-pyrazol-3-yl)-6,7-dihydrothieno[3,4-c]pyridin-4(5)-one] | 1500
CSc1sc(-c2cc[nH]n2)c2c1C(=O)N[C@H](c1cccc(F)c1)C2 [Example 17, (6S)-3-(methylsulfanyl)-6-(3-fluorophenyl)-1-(1H-pyrazol-3-yl)-6,7-dihydrothieno[3,4-c]pyridin-4(5)-one] | 78
CSc1sc(-c2cc[nH]n2)c2c1C(=O)NC(C1CCC1)C2 (centres unmarked) [Example 14, 6-cyclobutyl-3-(methylsulfanyl)-1-(1H-pyrazol-3-yl)-6,7-dihydrothieno[3,4-c]pyridin-4(5)-one] | 190
CCC(C)CSc1sc(-c2cc[nH]n2)c2c1C(=O)N[C@H](C)C2 (some centres unmarked) [Example 49] | 120
CSc1sc(-c2cc[nH]n2)c2c1C(=O)N(Cc1cccnc1Cl)CC2 [Example 58, 5-[(2-chloropyridin-3-yl)methyl]-3-(methylsulfanyl)-1-(1H-pyrazol-3-yl)-6,7-dihydrothieno[3,4-c]pyridin-4(5)-one] | 3000

Continued, values first:

IC50 [nM] | SMILES
190 | CC(C)CC1Cc2c(-c3cc[nH]n3)sc(NC3CCCC3)c2C(=O)N1 (centres unmarked) [Example 89, 3-(cyclopentylamino)-6-(2-methyl)propyl-1-(1H-pyrazol-3-yl)-6,7-dihydrothieno[3,4-c]pyridin-4(5H)-one]
360 | O=C1NCCc2c(-c3cc[nH]n3)sc(NC3CCCC3)c21 [Example 90, 3-(cyclopentylamino)-(1H-pyrazol-3-yl)-6,7-dihydrothieno[3,4-c]pyridin-4(5H)-one]
35 | CC1Cc2c(-c3cc[nH]n3)sc(SC3CCCC3)c2C(=O)N1 (centres unmarked) [Example 31, 6-methyl-3-(cyclopentylsulfanyl)-1-(1H-pyrazol-3-yl)-6,7-dihydrothieno[3,4-c]pyridin-4(5)one]
320 | CC1Cc2c(-c3cc[nH]n3)sc(NC3CCCC3)c2C(=O)N1 (centres unmarked) [Example 87, 3-(cyclopentylamino)-6-methyl-1-(1H-pyrazol-3-yl)-6,7-dihydrothieno[3,4-c]pyridin-4(5H)-one]
3100 | O=C(O)CSc1sc(-c2cc[nH]n2)c2c1C(=O)NCC2 [Example 46, 1-{[4-oxo-1-(1H-pyrazol-3-yl)-4,5,6,7-tetrahydrothieno[3,4-c]pyridin-3-yl]sulfanyl}acetic acid]
330 | C[C@@H]1Cc2c(-c3cc[nH]n3)sc(NC3CCCC3)c2C(=O)N1 [Example 98, (6R)-3-(cyclopentylamino)-6-methyl-1-(1H-pyrazol-3-yl)-6,7-dihydrothieno[3,4-c]pyridin-4(5H)-one]
